In patent publication US20140248291A1, “Modulation of Cellular Migration” (THE UAB RESEARCH FOUNDATION, priority 2011, published 2014):

Experiments:
[1] = tested on: D54-EGFP tumor cells; test: tumor invasion/growth in organotypic mouse brain slice cultures; assay type: cell-based, human
Description: Slice cultures were prepared from brains of P13-P16 BALB/c scid mice (Jackson Laboratory). Coronal brain sections 300 μm thick were sliced with a Vibrotome 3000 sectioning system in ice cold artificial saline. Brain slices were transferred into filter inserts with a polycarbonate membrane (Falcon, BD, pore size 0.45 μm). Filters were placed into 6-well plates containing 1 ml of DMEM supplemented with 8% FCS, 0.2 mM glutamine, 100 U/mL penicillin, and […] streptomycin. After overnight repose the medium was changed to cultivation medium containing 25% heat-inactivated horse serum, 50 mM sodium bicarbonate, 2% glutamine, 25% Hank's balanced salt solution, […] insulin (all from Gibco), 2.46 mg/mL glucose (Sigma Aldrich), 0.8 mg/mL vitamin C (Sigma Aldrich), 100 U/mL penicillin, […] streptomycin (Sigma Aldrich), and 5 mM Tris in DMEM (Gibco). At day 3 of culturing approximately 3000 D54-EGFP tumor cells in a volume of 1 μl were implanted per organotypic brain slice. Cells were injected using a 1 μl hemilton syringe mounted to a micromanipulator. The cell suspension was slowly injected over 30 seconds and subsequently the syringe was slowly pulled out. Gliomas were always inoculated into the right cortex. […] The tumor area was determined using ImageJ software (available from rsbweb.nih.gov). Tumor growth was calculated between day 4 and day 11 of culturing.

[2] = tested on: B2 receptor; settings: cited from earlier work
[3] = in vivo; cited from earlier work
[4] = molecular target: T1, rat B2R (Rattus norvegicus, UniProt P25023); settings: n=3, read-out: IC50, BK-induced [3H]-IP3 formation; cited from earlier work
T1 sequence (P25023 1-396): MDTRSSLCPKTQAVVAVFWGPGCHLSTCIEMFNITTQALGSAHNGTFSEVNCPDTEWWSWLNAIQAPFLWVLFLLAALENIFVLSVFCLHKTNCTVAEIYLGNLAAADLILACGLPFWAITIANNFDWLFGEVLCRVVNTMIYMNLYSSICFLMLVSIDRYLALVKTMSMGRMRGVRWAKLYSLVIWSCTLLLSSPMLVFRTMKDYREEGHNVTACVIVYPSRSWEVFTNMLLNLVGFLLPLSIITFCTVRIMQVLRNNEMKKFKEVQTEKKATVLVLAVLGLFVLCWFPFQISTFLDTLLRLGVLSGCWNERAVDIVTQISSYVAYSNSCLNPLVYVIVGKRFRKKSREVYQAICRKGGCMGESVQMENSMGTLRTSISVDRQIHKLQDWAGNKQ

SMILES	tumor growth day 4 to day 11 ([1]; BK and HOE-140 compared to control slices or HOE-140 alone)	migration (spread) of GFP-expressing tumor cells ([1]; HOE-140 (5 μM) and BK (1 μM) compared to BK alone)	Schild slope ([2]; 45Ca efflux from NG108-15 cells)	pKB, inhibition of B2 receptor-induced 45Ca efflux ([2]; NG108-15 cells, n=5)	oral availability [3]	IC50 [4]
N=C(N)NCCCC(NC(=O)[C@H](N)CCCNC(=N)N)C(=O)N1CCC[C@H]1C(=O)N1C[C@H](O)C[C@H]1C(=O)NCC(=O)N[C@@H](Cc1cccs1)C(=O)N[C@@H](CO)C(=O)N1Cc2ccccc2C[C@@H]1C(=O)N1C2CCCCC2C[C@H]1C(=O)N[C@H](CCCNC(=N)N)C(=O)O (stereo partly drawn) [HOE-140, D-Arg-[Hyp^3, Thi^5, D-Tic^7, Oic^8]bradykinin]	did not differ significantly	significantly reduced migration	–	–	–	–
CN(C)CCN(C)CCNC(=O)[C@@H]1CCCN1S(=O)(=O)c1ccc(NNC(=S)NC(c2ccccc2)c2ccccc2)c([N+](=O)[O-])c1 [Bradyzide]	–	–	1.05	8.0±0.16	orally available	11.6 ± 1.4 nM
